Patent publication US20150352114A1, “MITOTIC KINESIN Eg5 INHIBITING ANTICANCER AGENTS” (THE CLEVELAND CLINIC FOUNDATION, priority 2014, published 2015)

Tested on: pCRMP2 (T514) in interphase GSCs
Test: CRMP2 phosphorylation immunoblot
Type: cell-based, human
Settings: interphase GSCs treated with microtubule agents
Protocol: FIGS. 8(A-B) illustrate that Eg5 impacts microtubule growth through the CRMP-tubulin deposition pathway; (A) 08-387 GSCs enriched in interphase were exposed to vehicle (DMSO) or ispinesib (200 nM) and harvested for whole cell lysates every two hours over a 6 hour time course. Resulting lysates were probed for CRMP2 and pCRMP2 (T514); (B) Human brain microvascular endothelial cells (HuBrMVECs) were treated with vehicle (DMSO) or ispinesib (200 nM) and harvested for whole cell lysates every three hours over a 6 hour time course. Resulting lysates were probed for CRMP2 and pCRMP2 (T514); For all immunoblots, βactin served as a loading control. Molecular weight (MW) of resulting bands is given in kilodaltons (kD).
Protein extracts were made using a 50 mM Tris pH 8.0, […] NaCl, 0.5% NP-40 lysis solution. Resulting lysates were ran on 10% SDS-PAGE gels and transferred to Immobilon-FL PVDF (Millipore Corp., Billerica, Mass.). The membranes were blocked with 5% (wt/vol) bovine serum albumin in PBS-Tween-20 (0.2% vol/vol) and probed with primary antibodies against Eg5 (mouse, 1:4000, BD Biosciences, San Jose, Calif.), Olig2 (rabbit, 1:1000, abcam, San Francisco, Calif.), GFAP (DAKO; 1:10,000, Carpinteria, Calif.), CRMP2 (mouse, 1:1000, abgent, San Diego, Calif.), pCRMP2(T514) (rabbit, 1:1000, Cell Signaling, Beverly, Mass.), or β-actin (mouse, 1:8000, Sigma-Aldrich, St. Louis, Mo.) as a loading control. Secondary antibodies (LI-COR) were incubated in TBST+0.02% SDS and visualized with the LI-COR Odyssey near infrared imaging system (Lincoln, NB).

Row | SMILES | CRMP2 phosphorylation at T514
1 | CC(=O)O[C@H]1C(=O)[C@@]2(C)[C@H]([C@H](OC(=O)c3ccccc3)[C@]3(O)C[C@H](OC(=O)[C@H](O)[C@@H](NC(=O)c4ccccc4)c4ccccc4)C(C)=C1C3(C)C)[C@]1(OC(C)=O)CO[C@@H]1C[C@@H]2O [paclitaxel] | induce CRMP2 phosphorylation at T514
2 | COC(=O)Nc1nc2ccc(C(=O)c3cccs3)cc2[nH]1 [nocodazole] | induce CRMP2 phosphorylation at T514
